Reference: ChEMBL document CHEMBL3286118, “Synthesis and in vitro antitumor activity of novel 2-alkyl-5-methoxycarbonyl-11-methyl-6H-pyrido[4,3-b]carbazol-2-ium and 2-alkylellipticin-2-ium chloride derivatives” (Eur J Med Chem, 2014)

Assay: Cytotoxicity against human HeLaS3 cells assessed as cell viability after 24 to 72 hrs by MTT assay
Format: functional, cell-based
Details: HeLa S3

Row | Compound | IC50
1 | Cc1c2cc[n+](CCOCCN)cc2c(C)c2c1[nH]c1ccccc12 | 27.8 µM
2 | CNC(=O)NCCOCC[n+]1ccc2c(C)c3[nH]c4ccccc4c3c(C)c2c1 | 75.3 µM
3 | Cc1c2ccncc2c(C)c2c1[nH]c1ccccc12 [ELLIPTECINE] | 2.1 µM
4 | Cc1c2cc[n+](CCOCCNC(=O)N(C)N=O)cc2c(C)c2c1[nH]c1ccc(O)cc12 | 60 µM
5 | CN(N=O)C(N)=O [N-METHYL-N-NITROSUREA] | > 100 µM
6 | Cc1c2c[n+](CCCCCN)ccc2c(C)c2c1c1cc(O)ccc1n2C | 19.3 µM
7 | CNC(=O)NCCOCC[n+]1ccc2c(C)c3c(c(C)c2c1)c1cc(O)ccc1n3C | 6.2 µM
8 | COC(=O)c1c2cc[n+](CCN)cc2c(C)c2c1[nH]c1ccccc12 | 5.8 µM
9 | Cc1c2c[n+](CCOCCNC(=O)N(C)N=O)ccc2c(C)c2c1c1cc(O)ccc1n2C | 18.4 µM
10 | COC(=O)c1c2cc[n+](CCNC(=O)N(C)N=O)cc2c(C)c2c1[nH]c1ccccc12 | 15 µM
11 | COC(=O)c1c2cc[n+](CCCNC(=O)N(C)N=O)cc2c(C)c2c1[nH]c1ccccc12 | 1.3 µM
12 | CNC(=O)NCCCCC[n+]1ccc2c(C)c3c(c(C)c2c1)c1cc(O)ccc1n3C | 32.5 µM
13 | COC(=O)c1c2cc[n+](CCCN)cc2c(C)c2c1[nH]c1ccccc12 | 2.5 µM
14 | Cc1c2c[n+](CCOCCN)ccc2c(C)c2c1c1cc(O)ccc1n2C | 17.9 µM
15 | Cc1c2cc[n+](CCOCCN)cc2c(C)c2c1[nH]c1ccc(O)cc12 | 17.7 µM
16 | Cc1c2cc[n+](C)cc2c(C)c2c1[nH]c1ccccc12 | 2.9 µM
17 | CNC(=O)NCC[n+]1ccc2c(C(=O)OC)c3[nH]c4ccccc4c3c(C)c2c1 | 6.6 µM
18 | COC(=O)c1c2cc[n+](CCOCCN)cc2c(C)c2c1[nH]c1ccccc12 | 41.3 µM
19 | CNC(=O)NCCC[n+]1ccc2c(C(=O)OC)c3[nH]c4ccccc4c3c(C)c2c1 | 24 µM
20 | CNC(=O)NCCOCC[n+]1ccc2c(C)c3[nH]c4ccc(O)cc4c3c(C)c2c1 | 29.4 µM
21 | COC(=O)c1c2cc[n+](CCOCCNC(=O)N(C)N=O)cc2c(C)c2c1[nH]c1ccccc12 | 51.9 µM
